Numbers after ± are expanded uncertainties.
Experiment: mn = molality of the nth substance listed, in mol/kg
Settings: 101 kPa, Liquid

CCCCCCn1cc[n+](C)c1.[Br-] [3-hexyl-1-methyl-1H-imidazolium bromide] + O
Settings	mass density, 283.15 K [kg/m3]	mass density, 288.15 K [kg/m3]	mass density, 293.15 K [kg/m3]	mass density, 298.15 K [kg/m3]	mass density, 303.15 K [kg/m3]	speed of sound, 283.15 K [m/s]	speed of sound, 288.15 K [m/s]	speed of sound, 293.15 K [m/s]	speed of sound, 298.15 K [m/s]	speed of sound, 303.15 K [m/s]
m1 = 0.0042	999.919 ± 0.48	999.312 ± 0.49	998.411 ± 0.49	997.246 ± 0.5	995.843 ± 0.51	1448.7 ± 2.9	1467 ± 2.9	1483.2 ± 2.9	1497.5 ± 2.9	1509.8 ± 3
m1 = 0.0048	999.941 ± 0.48	999.334 ± 0.49	998.432 ± 0.49	997.266 ± 0.5	995.864 ± 0.51	1448.8 ± 2.9	1467.1 ± 2.9	1483.2 ± 2.9	1497.5 ± 2.9	1509.8 ± 3
m1 = 0.0067	1000.03 ± 0.48	999.423 ± 0.49	998.518 ± 0.49	997.351 ± 0.5	995.948 ± 0.51	1449.2 ± 2.9	1467.4 ± 2.9	1483.5 ± 2.9	1497.7 ± 2.9	1510.1 ± 3
m1 = 0.0081	1000.1 ± 0.49	999.485 ± 0.49	998.579 ± 0.49	997.413 ± 0.5	996.006 ± 0.51	1449.3 ± 2.9	1467.4 ± 2.9	1483.6 ± 2.9	1497.7 ± 2.9	1510.1 ± 3
m1 = 0.0139	1000.38 ± 0.49	999.762 ± 0.49	998.85 ± 0.49	997.679 ± 0.5	996.267 ± 0.51	1450.3 ± 2.9	1468.4 ± 2.9	1484.5 ± 2.9	1498.6 ± 3	1510.8 ± 3
m1 = 0.0295	1001.15 ± 0.49	1000.52 ± 0.49	999.592 ± 0.49	998.405 ± 0.49	996.983 ± 0.5	1452.9 ± 2.9	1470.8 ± 2.9	1486.7 ± 2.9	1500.5 ± 3	1512.6 ± 3
m1 = 0.0369	1001.52 ± 0.49	1000.88 ± 0.49	999.946 ± 0.49	998.754 ± 0.49	997.324 ± 0.5	1453.3 ± 2.9	1471.1 ± 2.9	1486.8 ± 2.9	1500.6 ± 3	1512.5 ± 3
m1 = 0.0487	1002.1 ± 0.5	1001.45 ± 0.49	1000.5 ± 0.49	999.3 ± 0.49	997.863 ± 0.5	1455.3 ± 2.9	1473 ± 2.9	1488.5 ± 2.9	1502.2 ± 3	1514 ± 3
m1 = 0.064	1002.84 ± 0.5	1002.17 ± 0.5	1001.21 ± 0.49	999.994 ± 0.49	998.545 ± 0.49	1457.9 ± 2.9	1475.3 ± 2.9	1490.7 ± 2.9	1504.1 ± 3	1515.7 ± 3
m1 = 0.073	1003.27 ± 0.51	1002.59 ± 0.5	1001.62 ± 0.5	1000.4 ± 0.49	998.942 ± 0.49	1459.4 ± 2.9	1476.6 ± 2.9	1491.9 ± 2.9	1505.2 ± 3	1516.7 ± 3
m1 = 0.094	1004.29 ± 0.51	1003.59 ± 0.51	1002.6 ± 0.5	1001.35 ± 0.5	999.878 ± 0.49	1462.8 ± 2.9	1479.8 ± 2.9	1494.8 ± 2.9	1507.8 ± 3	1519.2 ± 3
m1 = 0.1183	1005.45 ± 0.52	1004.72 ± 0.52	1003.71 ± 0.51	1002.44 ± 0.5	1000.95 ± 0.49	1466.9 ± 2.9	1483.5 ± 2.9	1498.2 ± 3	1510.9 ± 3	1522 ± 3
m1 = 0.1423	1006.6 ± 0.53	1005.85 ± 0.52	1004.81 ± 0.52	1003.53 ± 0.51	1002.01 ± 0.5	1470.9 ± 2.9	1487.1 ± 2.9	1501.4 ± 3	1513.9 ± 3	1524.7 ± 3
m1 = 0.1639	1007.6 ± 0.54	1006.82 ± 0.53	1005.77 ± 0.53	1004.47 ± 0.52	1002.94 ± 0.51	1474 ± 2.9	1490 ± 2.9	1504.1 ± 3	1516.3 ± 3	1526.9 ± 3
m1 = 0.2206	1010.25 ± 0.55	1009.42 ± 0.55	1008.31 ± 0.54	1006.95 ± 0.53	1005.38 ± 0.52	1482.7 ± 2.9	1497.9 ± 3	1511.2 ± 3	1522.8 ± 3	1532.7 ± 3
m1 = 0.2581	1011.96 ± 0.57	1011.09 ± 0.56	1009.94 ± 0.55	1008.55 ± 0.55	1006.95 ± 0.54	1488.1 ± 2.9	1502.7 ± 3	1515.6 ± 3	1526.7 ± 3	1536.2 ± 3
m1 = 0.3034	1014.04 ± 0.58	1013.11 ± 0.57	1011.93 ± 0.57	1010.5 ± 0.56	1008.86 ± 0.55	1494.6 ± 3	1508.7 ± 3	1521 ± 3	1531.6 ± 3	1540.7 ± 3
m1 = 0.3543	1016.3 ± 0.6	1015.32 ± 0.59	1014.08 ± 0.58	1012.61 ± 0.57	1010.93 ± 0.56	1501.6 ± 3	1515 ± 3	1526.7 ± 3	1536.8 ± 3	1545.3 ± 3
m1 = 0.3874	1017.82 ± 0.61	1016.8 ± 0.6	1015.53 ± 0.59	1014.03 ± 0.58	1012.32 ± 0.57	1506.1 ± 3	1519.1 ± 3	1530.4 ± 3	1540.1 ± 3	1548.2 ± 3
m1 = 0.4492	1020.54 ± 0.63	1019.46 ± 0.62	1018.13 ± 0.61	1016.57 ± 0.6	1014.81 ± 0.59	1513.7 ± 3	1525.9 ± 3	1536.4 ± 3	1545.4 ± 3	1552.9 ± 3
m1 = 0.6269	1028.05 ± 0.69	1026.78 ± 0.68	1025.28 ± 0.67	1023.56 ± 0.66	1021.66 ± 0.65	1535.2 ± 3	1545.3 ± 3	1553.8 ± 3	1561 ± 3.1	1566.8 ± 3.1
m1 = 0.8614	1037.26 ± 0.76	1035.74 ± 0.75	1034.03 ± 0.74	1032.12 ± 0.73	1030.03 ± 0.71	1557.7 ± 3.1	1565.1 ± 3.1	1571.3 ± 3.1	1576.3 ± 3.1	1580.2 ± 3.1
m1 = 1.001	1042.28 ± 0.8	1040.64 ± 0.79	1038.8 ± 0.78	1036.78 ± 0.77	1034.6 ± 0.75	1568.5 ± 3.1	1574.6 ± 3.1	1579.6 ± 3.1	1583.5 ± 3.1	1586.5 ± 3.1
m1 = 1.321	1053.01 ± 0.89	1051.1 ± 0.88	1049.03 ± 0.87	1046.8 ± 0.85	1044.42 ± 0.84	1586.3 ± 3.1	1590.3 ± 3.1	1593.4 ± 3.1	1595.6 ± 3.1	1596.9 ± 3.1
m1 = 1.739	1065.23 ± 1	1063.06 ± 0.99	1060.74 ± 0.98	1058.31 ± 0.96	1055.74 ± 0.95	1600 ± 3.2	1602.5 ± 3.2	1604.1 ± 3.2	1604.8 ± 3.2	1604.7 ± 3.2
m1 = 2.087	1074.16 ± 1.1	1071.82 ± 1.1	1069.36 ± 1.1	1066.78 ± 1	1064.09 ± 1	1607.4 ± 3.2	1608.9 ± 3.2	1609.6 ± 3.2	1609.4 ± 3.2	1608.4 ± 3.2

Source: the NIST ThermoML archive (doi:10.1016/j.jct.2008.01.003)
